In ChEMBL document CHEMBL3638639, “Chemical compounds” (2015):

These compounds were tested against T1, Solute carrier family 22 member 12 (Homo sapiens, UniProt Q96S37) (assay: [14C]-Uric Uric acid working stock was made by addition of radiolabeled compound to a final concentration of 120 nM in chloride-free buffer. In all wells, the final assay concentration of solvent (DMSO) was 0.25%; the final assay concentration of [14C]-uric acid was 30 nM in chloride-free buffer and the final compound of formula (I) concentrations ranged from 0 to 10 uM.).
T1 sequence (Q96S37 whole entry): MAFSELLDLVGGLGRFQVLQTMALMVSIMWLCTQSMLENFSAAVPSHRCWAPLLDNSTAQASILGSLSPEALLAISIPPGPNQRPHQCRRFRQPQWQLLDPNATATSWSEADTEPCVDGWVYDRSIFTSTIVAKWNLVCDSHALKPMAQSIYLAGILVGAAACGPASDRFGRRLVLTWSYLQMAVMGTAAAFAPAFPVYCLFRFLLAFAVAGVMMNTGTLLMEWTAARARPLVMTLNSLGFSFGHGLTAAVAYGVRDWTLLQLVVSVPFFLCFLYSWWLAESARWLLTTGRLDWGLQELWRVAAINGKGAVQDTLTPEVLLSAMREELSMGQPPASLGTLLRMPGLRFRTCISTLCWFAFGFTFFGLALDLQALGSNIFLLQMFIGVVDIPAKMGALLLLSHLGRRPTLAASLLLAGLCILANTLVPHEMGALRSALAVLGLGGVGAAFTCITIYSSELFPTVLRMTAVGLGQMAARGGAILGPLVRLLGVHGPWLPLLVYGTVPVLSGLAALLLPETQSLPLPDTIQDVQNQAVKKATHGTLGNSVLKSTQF

| IC50 | Structure (SMILES) |
| --- | --- |
| 47 nM | N#Cc1ccc(Oc2ccc(S(=O)(=O)Nc3ccc(F)cn3)cc2C#N)c(F)c1 |
| 84 nM | N#Cc1cc(S(=O)(=O)Nc2ccc(F)cn2)ccc1Oc1ccc(Cl)cc1Cl |
| 495 nM | N#Cc1ccccc1Oc1ccc(S(=O)(=O)Nc2ccc(F)cn2)cc1C#N |
| 117 nM | Cc1ccc(F)c(Oc2ccc(S(=O)(=O)Nc3ccc(F)cn3)cc2C#N)c1 |
| 196 nM | Cc1ccc(Cl)c(Oc2ccc(S(=O)(=O)Nc3ccc(F)cn3)cc2C#N)c1 |
| 1000 nM | N#Cc1cc(S(=O)(=O)Nc2ccc(F)cn2)ccc1Oc1cnc(N2CCC2)c(Cl)c1 |
| 258 nM | CNc1ncc(Oc2ccc(S(=O)(=O)Nc3ccc(F)cn3)cc2C#N)cc1Cl |
| 472 nM | CN(C)c1ncc(Oc2ccc(S(=O)(=O)Nc3ccc(F)cn3)cc2C#N)cc1Cl |
| 87 nM | N#Cc1cc(S(=O)(=O)Nc2ccc(F)cn2)ccc1Oc1cnc(N)c(Cl)c1 |
